Test results from PubChem BioAssay (NCI).
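Each compound was tested at five concentrations against cells in 96-well plates for 48 hours. GI50: concentration for 50% inhibition of growth. TGI denotes the concentration required for complete inhibition of growth.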

Key:
Test in all cases: DTP human tumour cell line panel, 48 h; in the data active = GI50 below about 0.43 µM; inactive = the rest
SF-268 CNS = test system: SF-268 CNS
HOP-62 NSCLC = test system: HOP-62 NSCLC
SK-OV-3 ovarian = test system: SK-OV-3 ovarian
RPMI-8226 leukemia = test system: RPMI-8226 leukemia
PC-3 prostate = test system: PC-3 prostate
TK-10 renal = test system: TK-10 renal
EKVX NSCLC = test system: EKVX NSCLC
M14 melanoma = test system: M14 melanoma
KM12 colon = test system: KM12 colon
NCI-H460 lung = test system: NCI-H460 lung
COLO 205 colon = test system: COLO 205 colon
CAKI-1 renal = test system: CAKI-1 renal
UACC-62 melanoma = test system: UACC-62 melanoma
HT29 colon = test system: HT29 colon
IGROV1 ovarian = test system: IGROV1 ovarian
U251 CNS = test system: U251 CNS
ACHN renal = test system: ACHN renal
HCT-116 colon = test system: HCT-116 colon
786-0 renal = test system: 786-0 renal
A549 NSCLC = test system: A549 NSCLC
SF-539 CNS = test system: SF-539 CNS
BT-549 breast = test system: BT-549 breast
MOLT-4 leukemia = test system: MOLT-4 leukemia
HCC-2998 colon = test system: HCC-2998 colon
SR leukemia = test system: SR leukemia
SK-MEL-5 melanoma = test system: SK-MEL-5 melanoma
A498 renal = test system: A498 renal
HL-60(TB) leukemia = test system: HL-60(TB) leukemia
LOX IMVI melanoma = test system: LOX IMVI melanoma
SNB-75 CNS = test system: SNB-75 CNS
HCT-15 colon = test system: HCT-15 colon
DU-145 prostate = test system: DU-145 prostate
HOP-92 NSCLC = test system: HOP-92 NSCLC
HS 578T breast = test system: HS 578T breast
K-562 leukemia = test system: K-562 leukemia
NCI-H522 lung = test system: NCI-H522 lung
MALME-3M melanoma = test system: MALME-3M melanoma
T-47D breast = test system: T-47D breast
MCF7 breast = test system: MCF7 breast
MDA-MB-231 breast = test system: MDA-MB-231 breast
MDA-MB-435 = test system: MDA-MB-435
CCRF-CEM leukemia = test system: CCRF-CEM leukemia
RXF 393 renal = test system: RXF 393 renal
OVCAR-5 ovarian = test system: OVCAR-5 ovarian
UACC-257 melanoma = test system: UACC-257 melanoma
SK-MEL-2 melanoma = test system: SK-MEL-2 melanoma
SF-295 CNS = test system: SF-295 CNS
SNB-19 CNS = test system: SNB-19 CNS

Nc1nc(-c2cccc([N+](=O)[O-])c2)c(N=Nc2ccccc2[N+](=O)[O-])s1
3.29 µM: TGI (U251 CNS)
3.01 µM: TGI (786-0 renal)
14.1 µM: TGI (SF-295 CNS)
active: GI50 (HOP-92 NSCLC) 285 nM
3.63 µM: TGI (HOP-92 NSCLC)
5.2 µM: TGI (SK-OV-3 ovarian)
2980 nM: TGI (CAKI-1 renal)
5.95 µM: TGI (TK-10 renal)
32.7 µM: TGI (BT-549 breast)
31.1 µM: TGI (SK-MEL-5 melanoma)
5.73 µM: TGI (HCT-116 colon)
30.5 µM: TGI (A498 renal)
14.4 µM: TGI (NCI-H522 lung) | TGI (SNB-19 CNS)
5.84 µM: TGI (IGROV1 ovarian)
2890 nM: TGI (SF-539 CNS)
6.33 µM: TGI (HOP-62 NSCLC)
61.3 µM: TGI (M14 melanoma)
3.2 µM: TGI (RXF 393 renal)
3.61 µM: TGI (SNB-75 CNS)
inactive: GI50 (SF-268 CNS) 3.62 µM | GI50 (HOP-62 NSCLC) 2040 nM | GI50 (SK-OV-3 ovarian) 2130 nM | GI50 (RPMI-8226 leukemia) 4.18 µM | GI50 (PC-3 prostate) 3.43 µM | GI50 (TK-10 renal) 2910 nM | GI50 (EKVX NSCLC) 6.05 µM | GI50 (M14 melanoma) 4.84 µM | GI50 (KM12 colon) 5.39 µM | GI50 (NCI-H460 lung) 2250 nM | GI50 (COLO 205 colon) 42.8 µM | GI50 (CAKI-1 renal) 1430 nM | GI50 (UACC-62 melanoma) 2110 nM | GI50 (HT29 colon) 59 µM | GI50 (IGROV1 ovarian) 2320 nM | GI50 (U251 CNS) 1690 nM | GI50 (ACHN renal) 1270 nM | GI50 (HCT-116 colon) 1510 nM | GI50 (786-0 renal) 1540 nM | GI50 (A549 NSCLC) 20.7 µM | GI50 (SF-539 CNS) 1470 nM | GI50 (BT-549 breast) 4.66 µM | GI50 (MOLT-4 leukemia) 8.73 µM | GI50 (HCC-2998 colon) 53.5 µM | GI50 (SR leukemia) 22.7 µM | GI50 (SK-MEL-5 melanoma) 3.41 µM | GI50 (A498 renal) 7.62 µM | GI50 (HL-60(TB) leukemia) 48.7 µM | GI50 (LOX IMVI melanoma) 1830 nM | GI50 (SNB-75 CNS) 1440 nM | GI50 (HCT-15 colon) 2350 nM | GI50 (DU-145 prostate) 4.79 µM | GI50 (HS 578T breast) 2550 nM | GI50 (K-562 leukemia) 5.57 µM | GI50 (NCI-H522 lung) 1940 nM | GI50 (MALME-3M melanoma) 2900 nM | GI50 (T-47D breast) 4.04 µM | GI50 (MCF7 breast) 18.8 µM | GI50 (MDA-MB-231 breast) 1460 nM | GI50 (MDA-MB-435) 865 nM | GI50 (CCRF-CEM leukemia) 3.42 µM | GI50 (RXF 393 renal) 1640 nM | GI50 (OVCAR-5 ovarian) 8.34 µM | GI50 (UACC-257 melanoma) 63.4 µM | GI50 (SK-MEL-2 melanoma) 14.8 µM | GI50 (SF-295 CNS) 2800 nM | GI50 (SNB-19 CNS) 3.01 µM
9.04 µM: TGI (HS 578T breast)
6 µM: TGI (LOX IMVI melanoma)
2750 nM: TGI (ACHN renal)
> 100 µM: TGI (SF-268 CNS) | TGI (RPMI-8226 leukemia) | TGI (PC-3 prostate) | TGI (EKVX NSCLC) | TGI (KM12 colon) | TGI (NCI-H460 lung) | TGI (COLO 205 colon) | TGI (UACC-62 melanoma) | TGI (HT29 colon) | TGI (A549 NSCLC) | TGI (MOLT-4 leukemia) | TGI (HCC-2998 colon) | TGI (SR leukemia) | TGI (HL-60(TB) leukemia) | TGI (HCT-15 colon) | TGI (DU-145 prostate) | TGI (K-562 leukemia) | TGI (T-47D breast) | TGI (MCF7 breast) | TGI (MDA-MB-435) | TGI (CCRF-CEM leukemia) | TGI (OVCAR-5 ovarian) | TGI (UACC-257 melanoma)
8.6 µM: TGI (MALME-3M melanoma)
38.7 µM: TGI (SK-MEL-2 melanoma)
3.26 µM: TGI (MDA-MB-231 breast)
